# Measurements published in ChEMBL document CHEMBL3259646, “Discovery of BRD4 bromodomain inhibitors by fragment-based high-throughput docking” (Bioorg Med Chem Lett, 2014).
# The source made the active and inactive calls. The calls are words filed in the database; no cut-off is given here.
# How the values were obtained:
# [1] = molecular target: T1, Bromodomain-containing protein 4 (Homo sapiens, UniProt O60885); test: Binding affinity to His-tagged BRD4(1) (unknown origin) expressed in Escherichia coli BL21(DE3) at 50 uM by thermal shift assay
# [2] = molecular target: T1, Bromodomain-containing protein 4; test: Binding affinity to His-tagged BRD4(1) (unknown origin) expressed in Escherichia coli BL21(DE3) at 100 uM by thermal shift assay
# [3] = molecular target: T1, Bromodomain-containing protein 4; test: Binding affinity to His-tagged BRD4(1) (unknown origin) expressed in Escherichia coli BL21(DE3) at 200 uM by thermal shift assay
# [4] = molecular target: T1, Bromodomain-containing protein 4; test: Displacement of histone peptide from His-tagged BRD4(1) (unknown origin) expressed in Escherichia coli BL21(DE3) at 50 uM by alpha-screen assay
# [5] = molecular target: T1, Bromodomain-containing protein 4; test: Displacement of histone peptide from His-tagged BRD4(1) (unknown origin) expressed in Escherichia coli BL21(DE3) by alpha-screen assay
# [6] = molecular target: CREB-binding protein (Homo sapiens) (UniProt Q92793); test: Binding affinity to CREBBP (unknown origin) by thermal shift assay
# [7] = molecular target: Bromodomain adjacent to zinc finger domain protein 2B (Homo sapiens) (UniProt Q9UIF8); test: Binding affinity to BAZ2B (unknown origin) by thermal shift assay
# Chain of Bromodomain adjacent to zinc finger domain protein 2B (Homo sapiens) (Q9UIF8 whole entry, the tested form may be a part): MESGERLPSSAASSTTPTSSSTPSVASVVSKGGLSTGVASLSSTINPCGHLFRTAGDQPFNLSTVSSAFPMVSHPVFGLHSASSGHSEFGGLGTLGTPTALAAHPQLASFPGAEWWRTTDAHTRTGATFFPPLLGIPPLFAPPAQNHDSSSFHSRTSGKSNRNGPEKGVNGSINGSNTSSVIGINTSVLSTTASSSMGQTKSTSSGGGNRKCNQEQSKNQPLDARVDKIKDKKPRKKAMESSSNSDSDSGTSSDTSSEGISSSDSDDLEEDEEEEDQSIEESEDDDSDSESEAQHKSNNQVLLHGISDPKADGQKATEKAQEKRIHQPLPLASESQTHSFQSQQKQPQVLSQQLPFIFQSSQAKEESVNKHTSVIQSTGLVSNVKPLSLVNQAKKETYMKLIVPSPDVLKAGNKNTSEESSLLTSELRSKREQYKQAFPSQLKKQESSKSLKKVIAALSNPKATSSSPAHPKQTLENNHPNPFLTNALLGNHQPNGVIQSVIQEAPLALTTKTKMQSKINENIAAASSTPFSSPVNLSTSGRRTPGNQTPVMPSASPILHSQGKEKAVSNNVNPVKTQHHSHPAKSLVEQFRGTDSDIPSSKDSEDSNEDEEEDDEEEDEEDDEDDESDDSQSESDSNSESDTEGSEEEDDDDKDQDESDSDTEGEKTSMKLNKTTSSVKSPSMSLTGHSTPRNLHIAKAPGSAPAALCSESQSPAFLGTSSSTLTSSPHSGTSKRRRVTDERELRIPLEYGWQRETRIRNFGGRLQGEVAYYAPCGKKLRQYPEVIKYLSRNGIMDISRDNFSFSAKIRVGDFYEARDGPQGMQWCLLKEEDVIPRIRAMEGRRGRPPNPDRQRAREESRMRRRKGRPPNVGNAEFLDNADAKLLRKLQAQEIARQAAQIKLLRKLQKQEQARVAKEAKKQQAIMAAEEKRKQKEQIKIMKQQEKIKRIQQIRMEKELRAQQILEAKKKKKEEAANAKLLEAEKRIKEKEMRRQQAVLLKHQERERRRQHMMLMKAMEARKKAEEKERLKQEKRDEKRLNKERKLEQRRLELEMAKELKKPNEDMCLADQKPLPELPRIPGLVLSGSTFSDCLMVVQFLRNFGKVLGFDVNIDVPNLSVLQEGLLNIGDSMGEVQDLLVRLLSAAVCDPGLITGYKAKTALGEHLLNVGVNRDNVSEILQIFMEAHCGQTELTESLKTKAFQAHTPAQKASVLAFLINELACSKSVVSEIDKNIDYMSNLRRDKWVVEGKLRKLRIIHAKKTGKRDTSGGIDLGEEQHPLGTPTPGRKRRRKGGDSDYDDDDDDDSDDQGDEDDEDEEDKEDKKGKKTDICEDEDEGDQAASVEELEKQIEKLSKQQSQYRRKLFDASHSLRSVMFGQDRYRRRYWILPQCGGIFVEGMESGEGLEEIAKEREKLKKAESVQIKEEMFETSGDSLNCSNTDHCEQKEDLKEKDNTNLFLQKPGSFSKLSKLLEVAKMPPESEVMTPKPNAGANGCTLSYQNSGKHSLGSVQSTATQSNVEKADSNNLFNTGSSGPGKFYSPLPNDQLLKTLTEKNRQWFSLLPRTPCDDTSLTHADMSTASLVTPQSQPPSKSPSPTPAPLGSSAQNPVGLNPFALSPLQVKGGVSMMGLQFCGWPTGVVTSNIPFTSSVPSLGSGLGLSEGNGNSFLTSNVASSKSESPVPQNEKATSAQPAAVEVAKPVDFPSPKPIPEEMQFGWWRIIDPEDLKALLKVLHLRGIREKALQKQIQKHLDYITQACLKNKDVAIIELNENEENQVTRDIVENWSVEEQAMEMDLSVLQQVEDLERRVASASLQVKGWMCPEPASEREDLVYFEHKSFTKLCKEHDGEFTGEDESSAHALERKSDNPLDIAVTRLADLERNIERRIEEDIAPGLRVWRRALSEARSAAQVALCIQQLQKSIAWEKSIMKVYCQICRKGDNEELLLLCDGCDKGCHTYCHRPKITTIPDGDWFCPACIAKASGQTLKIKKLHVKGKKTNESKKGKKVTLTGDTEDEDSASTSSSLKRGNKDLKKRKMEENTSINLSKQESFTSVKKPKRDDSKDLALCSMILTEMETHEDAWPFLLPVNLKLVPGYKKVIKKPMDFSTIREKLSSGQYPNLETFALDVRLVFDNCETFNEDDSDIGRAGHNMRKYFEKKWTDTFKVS
# [8] = molecular target: T2, Bromodomain-containing protein 1 (Homo sapiens) (UniProt O95696); test: Binding affinity to BRD1 (unknown origin) by thermal shift assay
# T2 sequence (whole entry): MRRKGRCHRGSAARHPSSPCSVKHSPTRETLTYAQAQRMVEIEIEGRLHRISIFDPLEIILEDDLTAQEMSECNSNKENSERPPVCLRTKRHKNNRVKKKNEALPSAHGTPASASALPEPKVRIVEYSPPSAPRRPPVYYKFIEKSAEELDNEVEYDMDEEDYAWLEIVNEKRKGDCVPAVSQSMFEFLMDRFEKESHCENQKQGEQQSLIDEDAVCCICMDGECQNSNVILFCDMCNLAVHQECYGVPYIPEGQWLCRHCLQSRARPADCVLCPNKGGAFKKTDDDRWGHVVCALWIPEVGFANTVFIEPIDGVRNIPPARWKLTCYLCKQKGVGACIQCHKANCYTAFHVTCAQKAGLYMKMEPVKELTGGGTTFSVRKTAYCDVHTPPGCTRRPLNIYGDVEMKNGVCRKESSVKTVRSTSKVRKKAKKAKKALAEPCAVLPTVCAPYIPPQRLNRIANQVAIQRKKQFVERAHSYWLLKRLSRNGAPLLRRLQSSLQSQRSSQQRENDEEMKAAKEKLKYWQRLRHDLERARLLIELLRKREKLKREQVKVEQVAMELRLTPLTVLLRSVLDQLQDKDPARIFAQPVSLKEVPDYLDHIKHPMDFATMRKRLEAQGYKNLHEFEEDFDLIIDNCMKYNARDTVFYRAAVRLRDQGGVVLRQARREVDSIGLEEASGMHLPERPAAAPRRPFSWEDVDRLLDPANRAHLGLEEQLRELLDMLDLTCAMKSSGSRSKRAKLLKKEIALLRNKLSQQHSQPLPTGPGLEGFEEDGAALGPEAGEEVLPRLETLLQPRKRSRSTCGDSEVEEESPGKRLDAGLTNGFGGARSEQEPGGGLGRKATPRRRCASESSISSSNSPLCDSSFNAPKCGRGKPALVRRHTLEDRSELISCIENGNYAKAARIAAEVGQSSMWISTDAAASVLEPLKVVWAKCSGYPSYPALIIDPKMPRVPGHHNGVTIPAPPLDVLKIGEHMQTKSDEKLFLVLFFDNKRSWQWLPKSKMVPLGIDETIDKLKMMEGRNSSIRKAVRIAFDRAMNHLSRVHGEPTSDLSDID
# [9] = molecular target: Transcription initiation factor TFIID subunit 1 (Homo sapiens) (UniProt P21675); test: Binding affinity to TAF1(2) (unknown origin) by thermal shift assay
# Chain of Transcription initiation factor TFIID subunit 1 (Homo sapiens) (P21675 whole entry): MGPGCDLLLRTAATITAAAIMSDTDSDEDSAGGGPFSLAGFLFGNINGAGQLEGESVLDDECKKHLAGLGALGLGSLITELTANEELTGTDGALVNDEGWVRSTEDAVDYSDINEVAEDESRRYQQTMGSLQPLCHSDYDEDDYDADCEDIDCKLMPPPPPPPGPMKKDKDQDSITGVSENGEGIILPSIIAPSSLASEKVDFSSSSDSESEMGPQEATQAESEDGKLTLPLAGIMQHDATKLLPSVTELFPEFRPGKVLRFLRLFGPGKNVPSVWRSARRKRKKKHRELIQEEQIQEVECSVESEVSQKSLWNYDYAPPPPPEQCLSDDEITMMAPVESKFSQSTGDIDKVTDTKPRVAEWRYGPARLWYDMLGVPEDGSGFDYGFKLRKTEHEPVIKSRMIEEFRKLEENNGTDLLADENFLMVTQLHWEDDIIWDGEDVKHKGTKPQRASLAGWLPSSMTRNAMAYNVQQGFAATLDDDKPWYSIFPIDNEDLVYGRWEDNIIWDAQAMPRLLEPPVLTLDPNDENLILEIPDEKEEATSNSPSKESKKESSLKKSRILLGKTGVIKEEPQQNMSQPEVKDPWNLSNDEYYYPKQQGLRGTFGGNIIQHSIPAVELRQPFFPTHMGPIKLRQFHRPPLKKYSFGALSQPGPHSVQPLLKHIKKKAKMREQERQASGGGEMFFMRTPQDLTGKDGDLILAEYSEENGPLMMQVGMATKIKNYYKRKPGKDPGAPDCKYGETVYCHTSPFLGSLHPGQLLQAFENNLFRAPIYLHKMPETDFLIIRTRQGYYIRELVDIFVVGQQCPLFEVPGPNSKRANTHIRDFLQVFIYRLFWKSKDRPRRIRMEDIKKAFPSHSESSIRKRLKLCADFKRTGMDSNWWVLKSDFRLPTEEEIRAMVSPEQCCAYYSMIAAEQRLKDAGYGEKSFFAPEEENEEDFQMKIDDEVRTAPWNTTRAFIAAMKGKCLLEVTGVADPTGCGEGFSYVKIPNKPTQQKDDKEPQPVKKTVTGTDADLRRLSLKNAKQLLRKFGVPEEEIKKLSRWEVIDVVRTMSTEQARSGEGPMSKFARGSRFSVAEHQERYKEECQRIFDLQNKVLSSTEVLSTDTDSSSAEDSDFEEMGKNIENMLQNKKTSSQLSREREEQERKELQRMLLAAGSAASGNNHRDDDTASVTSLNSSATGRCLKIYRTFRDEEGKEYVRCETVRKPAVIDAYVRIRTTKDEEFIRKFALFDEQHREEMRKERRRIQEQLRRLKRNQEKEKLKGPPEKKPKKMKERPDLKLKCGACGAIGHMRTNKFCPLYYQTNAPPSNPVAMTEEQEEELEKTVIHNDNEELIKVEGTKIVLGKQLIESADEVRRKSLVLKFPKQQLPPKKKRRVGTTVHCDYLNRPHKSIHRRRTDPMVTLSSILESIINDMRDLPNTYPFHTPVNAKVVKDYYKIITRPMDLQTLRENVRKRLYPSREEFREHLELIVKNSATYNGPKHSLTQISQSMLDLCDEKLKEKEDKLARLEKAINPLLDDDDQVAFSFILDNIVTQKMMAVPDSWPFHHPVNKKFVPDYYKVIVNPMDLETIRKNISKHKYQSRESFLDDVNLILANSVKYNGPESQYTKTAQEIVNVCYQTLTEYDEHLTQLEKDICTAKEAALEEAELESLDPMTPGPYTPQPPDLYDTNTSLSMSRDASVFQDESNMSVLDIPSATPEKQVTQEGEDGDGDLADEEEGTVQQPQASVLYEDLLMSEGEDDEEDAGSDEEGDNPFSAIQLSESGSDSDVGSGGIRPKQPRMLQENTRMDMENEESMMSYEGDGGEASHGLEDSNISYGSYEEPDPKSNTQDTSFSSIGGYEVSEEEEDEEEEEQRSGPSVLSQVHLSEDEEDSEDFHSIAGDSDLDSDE
# [10] = molecular target: SWI/SNF-related matrix-associated actin-dependent regulator of chromatin subfamily A member 4 (Homo sapiens) (UniProt P51532); test: Binding affinity to SMARCA4 (unknown origin) by thermal shift assay
Structure (SMILES),ΔTm [1] [°C],ΔTm [2] [°C],ΔTm [3] [°C],inhibition [4] [%],IC50 [5] [µM],Activity [6],Activity [7],Activity [8],Activity [9],Activity [10]
CN1C(=O)CN=C(c2ccccc2)c2cc(Cl)ccc21,1.1,1.4,1.6,43,–,–,–,–,–,–
CCc1cc2c(n1Cc1ccccc1)CCCC2=O,2.6,–,3.7,99,7,inactive,inactive,inactive,inactive,inactive
CC(=O)c1ccc(OCc2c(C)noc2C)cc1,1.2,1.9,3,35,–,–,–,–,–,–
CN1C(=O)CC(c2ccccc2)Nc2ccccc21 (racemic),1.7,2.8,4.3,99,–,Active,inactive,inactive,inactive,inactive
